# Laboratory results from patent US10961309B2, “Reducing systemic regulatory T cell levels or activity for treatment of disease and injury of the CNS” (Yeda Research and Development Co. Ltd, priority 2014, dated 2021).
# “Also recorded” adds a separate entry of the source.
# What was measured:
# [1] = system: soluble Aβ1-40 and Aβ1-42; assay: Soluble Aβ (sAβ) protein quantification by ELISA; type: in vivo, mouse; details: 3 weeks after 1 week ATRA treatment, AD-Tg mice
# Method: Tissue homogenization and sAβ protein extraction was performed as previously described (Schmidt et al, 2005). Briefly, cerebral brain parenchyma was dissected and snap-frozen and kept at −80° C. until homogenization. Proteins were sequentially extracted from samples to obtain separate fractions containing proteins of differing solubility. Samples were homogenized in 10 volumes of ice-cold tissue homogenization buffer, containing 250 mM of sucrose, 20 mM of Tris base, 1 mM of ethylenediaminetetraacetic acid (EDTA), and 1 mM of ethylene glycol tetraacetic acid (pH 7.4), using a ground glass pestle in a Dounce homogenizer. After six strokes, the homogenate was mixed 1:1 with 0.4% diethylamine (DEA) in a 100-mM NaCl solution before an additional six strokes, and then centrifuged at 135,000 g at 4° C. for 45 min. The supernatant (DEA-soluble fraction containing extracellular and cytosolic proteins) was collected and neutralized with 10% of 0.5M of Tris-HCl (pH 6.8). Aβ1-40 and Aβ1-42 were individually measured by enzyme-linked immunosorbent assay (ELISA) from the soluble fraction using commercially available kits (Biolegend; #SIG-38954 and #SIG-38956, respectively) according to the manufacturer instructions.
# [2] = system: splenocytes (CD4+Foxp3+ Tregs, CD4+ IFN-γ+ T cells); assay: Flow cytometry of splenocytes; type: in vivo, mouse
# Method: Mice were transcardially perfused with PBS, and tissues were treated as previously described (Baruch et al, 2013). Brains were dissected and the different brain regions were removed under a dissecting microscope (Stemi DV4; Zeiss) in PBS, and tissues were dissociated using the gentleMACS™ dissociator (Miltenyi Biotec). Choroid plexus tissues were isolated from the lateral, third and fourth ventricles of the brain, incubated at 37° C. for 45 min in PBS (with Ca^2+/Mg^2+) containing 400 U/ml collagenase type IV (Worthington Biochemical Corporation), and then manually homogenized by pipetting. Spleens were mashed with the plunger of a syringe and treated with ACK (ammonium chloride potassium) lysing buffer to remove erythrocytes. In all cases, samples were stained according to the manufacturers' protocols. All samples were filtered through a 70 μm nylon mesh, and blocked with anti-Fc CD16/32 (1:100; BD Biosciences). For intracellular staining of IFN-γ, the cells were incubated with […] (10 ng/ml; Sigma-Aldrich) and ionomycin (250 ng/ml; Sigma-Aldrich) for 6 h, and Brefeldin-A (10 μg/ml; Sigma-Aldrich) was added for the last 4 h. Intracellular labeling of cytokines was done with BD Cytofix/Cytoperm™ Plus fixation/permeabilization kit (cat. no. 555028). For Treg staining, an eBioscience FoxP3 staining buffer set (cat. no. 00-5523-00) was used. The following fluorochrome-labeled monoclonal antibodies were purchased from BD Pharmingen, BioLegend, R&D Systems, or eBiosciences, and used according to the manufacturers' protocols: PE or Alexa Fluor 450-conjugated anti-CD4; PE-conjugated anti-CD25; PerCP-Cy5.5-conjugated anti-CD45; FITC-conjugated anti-TCRβ; APC-conjugated anti-IFN-γ; APC-conjugated anti-FoxP3; Brilliant-violet-conjugated anti-CD45. Cells were analyzed on an LSRII cytometer (BD Biosciences) using FlowJo software. In each experiment, relevant negative control groups, positive controls, and single stained samples for each tissue were used to identify the populations of interest and to exclude other populations.
# [3] = system: APP/PS1 mouse model of AD; details: weekly administration regimen (Butovsky et al, 2006); cited from earlier work
Compound,cerebral sAβ1-40 and sAβ1-42 levels [1],"splenocyte frequencies of Foxp3+CD25+ Tregs ([2]; ATRA 8 mg/kg/d i.p. every other day 1 week vs vehicle (DMSO), 5-month 5XFAD AD-Tg mice)",effect in the APP/PS1 mouse model of AD [3],"splenocyte Foxp3+ Treg levels ([2]; weekly-GA, 5XFAD AD-Tg mice, end of 1st week of regimen)"
"CC1=C(/C=C/C(C)=C/C=C/C(C)=C/C(=O)O)C(C)(C)CCC1 [ATRA, All-trans retinoic acid]",increased,significantly higher; also recorded: elevation,–,–
Glatiramer acetate [GA],–,–,therapeutic effect,reduced
